{"source": "the supplement of paper PMC10307832", "assay_in_all_cases": "relative viability (nuclei count vs DMSO), 5 days (fraction); higher = more cells survive", "key": {"[1]": {"compound": "N#CC1(c2ccc(NC(=O)c3cccnc3NCc3ccncc3)cc2)CCCC1 [Apatinib] + Cc1cc(Nc2cc(N3CCN(C)CC3)nc(Sc3ccc(NC(=O)C4CC4)cc3)n2)n[nH]1 [Tozasertib] (partner 0.1 µM)", "method_in_brief": "(§1)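 Lung cancer cell lines were seeded in 1536-well plates and dosed by pin tool the next day, with either a single drug or a fixed anchor-drug dose combined with five library-drug doses (not always all listed) spaced in √10 steps. Five days later, one step fixed the cells and stained their nuclei (final 0.05% Triton X-100, 1% formaldehyde, 1 ug/ml Hoechst), and nuclei were counted on 4× images. Relative viability is the nuclei count in treated wells divided by the count in vehicle wells, and each value is the median of duplicate plates.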"}, "[2]": {"compound": "CN(C)C(=N)NC(=N)N [Metformin] + COc1cc2c(Oc3ccc(NC(=O)C4(C(=O)Nc5ccc(F)cc5)CC4)cc3F)ccnc2cc1OCCCN1CCOCC1 [Foretinib] (partner 0.25 µM)", "method_in_brief": "as §1"}, "[3]": {"compound": "CN(C)C(=N)NC(=N)N [Metformin] + Cc1cc(Nc2cc(N3CCN(C)CC3)nc(Sc3ccc(NC(=O)C4CC4)cc3)n2)n[nH]1 [Tozasertib] (partner 0.1 µM)", "method_in_brief": "as §1"}, "[4]": {"compound": "CN(C)C(=N)NC(=N)N [Metformin] + CS(=O)(=O)CCNCc1ccc(-c2ccc3ncnc(Nc4ccc(OCc5cccc(F)c5)c(Cl)c4)c3c2)o1 [Lapatinib] (partner 2 µM)", "method_in_brief": "as §1"}}}
{"cell line": "NCI-H460", "values": [{"measurement": "relative viability", "setting": "[1]; first compound 0.08 µM", "result": 0.576}, {"measurement": "relative viability", "setting": "[1]; first compound 0.253 µM", "result": 0.51}, {"measurement": "relative viability", "setting": "[1]; first compound 0.8 µM", "result": 0.223}, {"measurement": "relative viability", "setting": "[1]; first compound 2.53 µM", "result": 0.0517}, {"measurement": "relative viability", "setting": "[1]; first compound 8 µM", "result": 0.053}, {"measurement": "relative viability", "setting": "[2]; first compound 10 µM", "result": 0.949}, {"measurement": "relative viability", "setting": "[2]; first compound 31.62 µM", "result": 0.998}, {"measurement": "relative viability", "setting": "[2]; first compound 100 µM", "result": 0.961}, {"measurement": "relative viability", "setting": "[2]; first compound 316.23 µM", "result": 1.02}, {"measurement": "relative viability", "setting": "[2]; first compound 1000 µM", "result": 1.03}, {"measurement": "relative viability", "setting": "[3]; first compound 31.62 µM", "result": 0.59}, {"measurement": "relative viability", "setting": "[3]; first compound 100 µM", "result": 0.645}, {"measurement": "relative viability", "setting": "[3]; first compound 316.23 µM", "result": 0.187}, {"measurement": "relative viability", "setting": "[3]; first compound 1000 µM", "result": 0.734}, {"measurement": "relative viability", "setting": "[4]; first compound 31.62 µM", "result": 1.15}, {"measurement": "relative viability", "setting": "[4]; first compound 100 µM", "result": 0.9}, {"measurement": "relative viability", "setting": "[4]; first compound 316.23 µM", "result": 0.849}, {"measurement": "relative viability", "setting": "[4]; first compound 1000 µM", "result": 1.02}]}
